According to patent US9636323B2, “Method of treating cancer that overexpresses TopBP1” (Baylor College of Medicine, priority 2014, dated 2017):

How the values were obtained:
[1] = target: T1, TopBP1/E2F1 interaction in HEK293T cells (Homo sapiens, UniProt Q92547); test: Co-immunoprecipitation of overexpressed E2F1 and TopBP1; type: cell-based; conditions: 5 h
T1 construct: expressed in transfected cells
Method: (§1) MDA-MB468 cells were lysed with TNN buffer (Liu et al. 2003). An aliquot of cell lysates was lysed with SDS lysis buffer and the rest of cell lysates were incubated with appropriate antibodies or beads at 4° C. for 3-12 h. Anti-FLAG beads (Sigma) were washed three times with TNN buffer. Immunoprecipitates were fractionated by SDS-PAGE and electro-transferred to Immobilon-P membrane (Millipore). Equal amount of protein loading was validated with Ponceau-S staining. The specific signals were detected by incubating with appropriate antibody. All primary antibodies were used at 1:1000 dilution and horseradish peroxidase (HRP)-conjugated secondary antibodies were used at 1:5000 dilution for immunoblotting. E2F1 (C-20 and KH-95), p53 (FL393), p63 (4A4 and H-129), p73 (H-79), p21 (C-19), Bax (N-20), GST (B-14), c-Myc (A14), Miz1 (H-190), Chk1 (G4), Actin (C-2) and GAPDH (6C5) antibodies were purchased from Santa Cruz. TopBP1 (mouse monoclonal) and Aid antibodies were purchased from BD Transduction Laboratories. TopBP1 (BL893, Rabbit polyclonal) antibody was purchased from Bethyl. Mouse monoclonal anti-phospho-γH2AX was purchased from Millipore. Phospho-Chk1 (Ser345) antibody was purchased from Cell signaling. FLAG (F7425) antibody was purchased from Sigma. Mouse monoclonal anti-p73 (IMG-246) was purchased from IMGENEX.

TopBP1/E2F1 interaction = target: T2, TopBP1/E2F1 interaction (Homo sapiens, UniProt Q92547); test: Co-immunoprecipitation in MDA-MB468 cells, TopBP1/E2F1; type: cell-based; conditions: 2.5 μM, 5 h
T2 construct: endogenous in cells; host or cells: MDA-MB468
T2 sequence (Q92547 whole entry): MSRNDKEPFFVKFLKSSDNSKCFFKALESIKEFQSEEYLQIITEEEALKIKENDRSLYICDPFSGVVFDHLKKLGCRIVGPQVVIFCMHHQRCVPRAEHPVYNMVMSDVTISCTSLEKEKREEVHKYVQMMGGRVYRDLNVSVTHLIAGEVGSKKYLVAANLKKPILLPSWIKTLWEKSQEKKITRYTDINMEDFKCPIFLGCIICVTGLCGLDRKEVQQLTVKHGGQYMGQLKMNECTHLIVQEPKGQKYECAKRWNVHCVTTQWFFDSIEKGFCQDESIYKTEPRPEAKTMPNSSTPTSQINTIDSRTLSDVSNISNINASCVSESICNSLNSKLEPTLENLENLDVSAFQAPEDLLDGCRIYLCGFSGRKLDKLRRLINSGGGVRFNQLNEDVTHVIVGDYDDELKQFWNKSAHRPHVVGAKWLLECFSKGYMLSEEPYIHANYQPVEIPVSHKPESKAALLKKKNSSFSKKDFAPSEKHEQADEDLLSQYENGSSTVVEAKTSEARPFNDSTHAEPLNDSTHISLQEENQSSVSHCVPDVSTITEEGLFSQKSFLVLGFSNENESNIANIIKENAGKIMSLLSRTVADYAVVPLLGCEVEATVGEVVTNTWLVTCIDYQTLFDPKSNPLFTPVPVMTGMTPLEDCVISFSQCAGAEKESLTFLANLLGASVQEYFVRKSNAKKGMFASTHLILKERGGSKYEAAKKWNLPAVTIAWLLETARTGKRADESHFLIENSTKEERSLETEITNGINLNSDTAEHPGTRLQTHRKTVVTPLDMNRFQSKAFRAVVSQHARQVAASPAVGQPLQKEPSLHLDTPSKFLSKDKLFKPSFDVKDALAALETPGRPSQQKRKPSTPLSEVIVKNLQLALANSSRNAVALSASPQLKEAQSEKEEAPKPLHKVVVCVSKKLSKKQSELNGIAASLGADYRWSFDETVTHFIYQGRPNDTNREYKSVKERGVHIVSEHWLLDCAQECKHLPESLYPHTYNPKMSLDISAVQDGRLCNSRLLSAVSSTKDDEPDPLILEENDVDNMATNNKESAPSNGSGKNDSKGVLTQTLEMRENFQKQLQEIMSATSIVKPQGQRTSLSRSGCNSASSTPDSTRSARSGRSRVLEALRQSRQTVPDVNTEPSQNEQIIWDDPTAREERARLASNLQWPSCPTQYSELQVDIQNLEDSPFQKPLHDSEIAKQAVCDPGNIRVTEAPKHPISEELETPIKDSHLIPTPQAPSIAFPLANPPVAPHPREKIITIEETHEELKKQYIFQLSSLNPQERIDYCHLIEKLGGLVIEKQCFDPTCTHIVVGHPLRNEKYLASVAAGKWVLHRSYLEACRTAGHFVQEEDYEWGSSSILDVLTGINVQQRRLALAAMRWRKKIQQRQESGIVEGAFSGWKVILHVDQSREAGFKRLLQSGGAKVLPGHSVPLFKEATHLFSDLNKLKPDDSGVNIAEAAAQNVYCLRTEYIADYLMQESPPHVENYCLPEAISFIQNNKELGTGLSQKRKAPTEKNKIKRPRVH
Method: as §1

[2] = test system: mutp53(R249S)/p73 interaction; test: Anti-p73 immunoprecipitation in BT549 cells; type: cell-based, human; conditions: 2.5 μM, 5 h
Method: as §1

[3] = test system: E2F1 transcriptional activity; test: E2F1 activity reporter assay (p14Arf promoter dual luciferase) in HEK293 cells; type: cell-based, human
Method: E2F1 activity reporter assay using a p14^ARF promoter-luciferase plasmid was performed as described (Liu et al. 2003). p53 activity reporter assay was performed by a p21^Cip promoter-luciferase plasmid (Liu et al. 2009). p73 activity reporter assay was performed using a pGL3-Bax promoter-luciferase plasmid (Liu et al. 2011). pRL-TK (Renilla luciferase, Promega) was used in all experiments for controlling transfection efficiency. The firefly and Renilla luciferase activities were measured by Dual-Luciferase Reporter System (Promega), and the firefly luciferase activities were normalized against the Renilla activity. All assays were performed in triplicate.

[4] = test system: E2F1, p63/p73 and NF-Y target genes; test: Real-time RT-PCR of E2F1, p63/p73 and NF-Y target genes in MDA-MB468 cells; type: cell-based, human; conditions: 2.5 μM, 5 h
Method: RNA was isolated using TRIzol method (Invitrogen). Quantitative reverse transcription-PCR (RT-PCR) was performed in triplicate using the forward and reverse primers ((Chowdhury et al. 2014) Supplementary FIG. 18) on an MX3005P thermal cycler using SYBR green dye method to observe the progress of the reactions with ROX dye, which was added as reference. GAPDH was run in parallel with target genes.

MDA-MB468 cells = test: Caspase 3/7 activity assay, MDA-MB468; type: cell-based, human
Method: (§2) The apoptosis was measured by Caspase-Glo® 3/7 assay (Promega) following the manufacturer's protocol. The cells were plated in 6-well tissue culture dish (10^4 cells/well) (BD Falcon) in respective media. […] The blank reactions were prepared per direction. Equal volume of Caspase-Glo® 3/7 reagents were applied to each well. A luminometer (Sirius) was used to quantitate luminescence.
To prepare TopBP1 knockdown stable cell line, MDA-MB468 cells were infected with lentivirus expressing TopBP1 shRNA (Liu et al. 2011) as well as scramble shRNA, separately. The infected cells were grown for 48 h followed by selection with puromycin (2 μg/ml). After selection, the knockdown was confirmed by Western blotting before further experiments. Two different pLKO-shTopBP1 (#1 and #2) constructs (Open Biosystems, RHS4533-NM_007027) were used to deplete TopBP1 in MDA-MB468 cells. Additional two pSuper-shTopBP1 constructs (Liu et al. 2004) were used to knock down TopBP1 in HEK293 cells. Two pSuper-shE2F1 constructs were used to deplete E2F1: shE2F1#1 (described previously (Liu et al. 2004)), and shE2F1#2 (target sequence 5′-[…]-3′). The target sequence for pSuperior-shE2F1 is the same as pSuper-shE2F1#1. To deplete p63, shp63alpha pLKO.1-puro (from Addgene, 19120) was used. TP73 MISSION shRNA (shp73 pLKO.1-puro) was purchased from Sigma (TRCN00002722587).

MDA-MB468 xenografts = test: MDA-MB468 xenograft model; type: in vivo, nude mice
Method: Female nu/nu mice (4-5 weeks old) were purchased from Charles River Laboratories (Cambridge, Mass.). The animals were cared for and maintained by the Animal Care and Use Committee of Baylor College of Medicine. Freshly grown MDA-MB468 breast cancer cells [(8×10^6) cells per site in 100 μl phosphate-buffered saline (PBS)] were injected subcutaneously into the right side of the flank of the 5-6 weeks old mice. When tumors were measurable, the mice were randomly divided into treatment and control groups. […] The control group mice were injected with vehicle (DMSO) in the same way. The mice were monitored thrice per week. The weight of the mice and tumor size were measured on the indicated day with a caliper and calculated based on the formula π/6 (length×depth×width). The evaluator was blinded to the group allocation during monitoring. Animals were sacrificed in the indicated dates, and tumors were harvested, weighed, and further processed for histopathological analysis. All experiments were performed under a Baylor College of Medicine Institutional Animal Care and Use Committee (IACUC)-approved protocol and all experiments confirm to IACUC standards and ethical regulations.
Next day the samples were sent to The Pathology and Histology Core of Baylor College of Medicine for further processing. The paraffin-embedded sections were stained with H&E, Ki-67, TUNEL and anti-cleaved caspase-3 using standard operating protocols.

[5] = test system: NCI-H520 lung cancer cells; test: Caspase 3/7 activation assay, NCI-H520; type: cell-based; conditions: 2.5 or 5 μM, 16 hours
Method: as §2

rats = conditions: cited from earlier work
[6] = 40 mg/kg i.p. every three days for three doses

T1 sequence (Q92547 whole entry): as above

## CC(=O)OCOC(=O)CN(CC(=O)OCOC(C)=O)Cc1cc2c(cc1OC(C)=O)Oc1cc(OC(C)=O)c(CN(CC(=O)OCOC(C)=O)CC(=O)OCOC(C)=O)cc1C21OC(=O)c2ccccc21 [Calcein AM, Calcein AM (acetoxymethyl ester)]
[1]
  interaction between overexpressed E2F1 and TopBP1: inhibited the interaction between overexpressed E2F1 and TopBP1
TopBP1/E2F1 interaction
  TopBP1/E2F1 interaction at physiological levels: inhibited
[2]
  binding of p73 to mutp53(R249S): release of p73 from mutp53(R249S)
[3]
  E2F1 transcriptional activity: enhanced
[4]
  E2F1 pro-apoptotic target genes (p73, Apaf1, caspase 3): up-regulated
  NF-Y target genes (Cdk1, Cdc25C, Cyclin A2): down-regulation
  p63/p73 target genes (Bax, Noxa, Hdm2): up-regulation
[4]; TopBP1-depleted cells
  induction of E2F1, p63/p73 and NF-Y target gene expression: less significant
MDA-MB468 cells; 2.5 μM overnight
  apoptosis (caspase 3/7 activity): induced apoptosis
MDA-MB468 cells; 0.1 and 0.5 μM, 16 h
  apoptosis (caspase 3/7 activity): not
MDA-MB468 cells; 2.5 and 5 μM, 16 h
  apoptosis (caspase 3/7 activity): induced
MDA-MB468 cells; TopBP1-depleted cells, 2.5 μM overnight
  effect of Calcein AM on apoptosis (caspase 3/7): mitigated the effect
MDA-MB468 xenografts; [6]
  body weights of mice: without affecting body weights
  expression of proliferation marker Ki-67 in xenografts: significantly inhibited
  xenograft growth: significantly inhibited xenograft growth
MDA-MB468 xenografts; one week after the second injection
  immunohistochemistry of xenografts (Ki-67, TUNEL, cleaved caspase 3): inhibition of proliferation and induction of apoptosis
MDA-MB468 xenografts; regrown tumors, second round from day 61
  tumor response to second round of treatment: responded to Calcein AM injection again
[5]
  apoptosis (caspase 3/7 activation): induced apoptosis
rats
  oral LD50: 14500 mg/kg
